{
  "source": "patent US10376520B2",
  "about": "“Methods for the treatment of cardiovascular disorders” (Galapagos NV, priority 2015, dated 2019)",
  "system": "RA patients",
  "assay": "LDL determination, Study 2 (RA patients, monotherapy)",
  "type": "in vivo, human",
  "settings": "for [LDL] Mean CFB / [LDL] Median CFB: Study 2 24 weeks results",
  "source_text": "Randomized, double-blind, placebo-controlled, multicenter, phase IIb dose finding study of Compound 1 (dosed as a [Compound 1:HCl:3H2O]) administered for 24 weeks as monotherapy to subjects with moderately to severely active rheumatoid arthritis who have an inadequate response to methotrexate alone\nDouble-blind, placebo-controlled, monotherapy study in subjects with moderately to severely active RA who have an inadequate response to methotrexate (MTX) (oral or parenteral).\n280 subjects randomized to one of 3 doses of Compound 1 (dosed as a [Compound 1:HCl:3H2O]) or to placebo, given once daily (q.d.).\nTwelve weeks of treatment with Compound 1 (dosed as a [Compound 1:HCl:3H2O]) at 50 mg, 100 mg, or 200 mg q.d.; or placebo. At Week 12, all subjects on placebo and the subjects on the 50 mg dose who have not achieved 20% improvement in swollen joint count (SJC66) and tender joint count (TJC68) will be assigned to 100 mg q.d. in a blinded fashion and will continue treatment until Week 24. Subjects in the other groups will maintain their randomized treatment until Week 24.\nThe determination of [LDL]-cholesterol is made using an automated method taking advantage of the selective micellary solubilization of [LDL]-cholesterol by a nonionic detergent and the interaction of a sugar compound and lipoproteins (VLDL and chylomicrons).\nWhen a detergent is included in the enzymatic method for cholesterol determination (cholesterol esterase, cholesterol oxidase coupling reaction), the relative reactivities of cholesterol in the lipoprotein fractions increase in this order: [HDL]<chylomicrons <VLDL <[LDL]. In the presence of Mg^2+, a sugar compound markedly reduces the enzymatic reaction of the cholesterol measurement in VLDL and chylomicrons. The combination of a sugar compound with detergent enables the selective determination of [LDL]-cholesterol in serum. (Friedewald et al., 1972; Rifai et al., 1992)\nHomogeneous enzymatic colorimetric assay.\nIn the presence of peroxidase, the hydrogen peroxide generated reacts with 4-aminoantipyrine and Sodium N-(2-hydroxy-3-sulfopropyl)-3,5-dimethoxyaniline (HSDA) to form a purple-blue dye.\nThe color intensity of this dye is directly proportional to the cholesterol concentration and is measured photometrically.\nHuman serum and plasma samples [LDL] determination was done on a Roche/Hitachi Cobas c 701/702 system which automatically calculate the analyte concentration of each sample. Samples containing precipitates are centrifuged before performing the assay.",
  "key": {"[1]": {"settings": "placebo switching to 100 mg q.d. at week 12, week 16"}, "[2]": {"settings": "placebo switching to 100 mg q.d. at week 12, week 20"}, "[3]": {"settings": "placebo switching to 100 mg q.d. at week 12, week 24"}},
  "data": [
    {"compound": "O=C(Nc1nc2cccc(-c3ccc(CN4CCS(=O)(=O)CC4)cc3)n2n1)C1CC1", "note": "[Compound 1, cyclopropanecarboxylic acid {5-[4-(1,1-dioxo-thiomorpholin-4-ylmethyl)-phenyl]-[1,2,4]triazolo[1,5-a]pyridin-2yl}-amide]", "values": [
      {"measurement": "[LDL] Mean CFB", "setting": "50 mg q.d. responders, week 16", "result": 0.18, "unit": "mmol/L"},
      {"measurement": "[LDL] Median CFB", "setting": "50 mg q.d. responders, week 16", "result": 0.16, "unit": "mmol/L"},
      {"measurement": "[LDL] Mean CFB", "setting": "50 mg q.d. responders, week 20", "result": 0.00, "unit": "mmol/L"},
      {"measurement": "[LDL] Median CFB", "setting": "50 mg q.d. responders, week 20", "result": 0.12, "unit": "mmol/L"},
      {"measurement": "[LDL] Mean CFB", "setting": "50 mg q.d. responders, week 24", "result": 0.00, "unit": "mmol/L"},
      {"measurement": "[LDL] Median CFB", "setting": "50 mg q.d. responders, week 24", "result": -0.01, "unit": "mmol/L"},
      {"measurement": "[LDL] Mean CFB", "setting": "100 mg q.d., week 1", "result": 0.12, "unit": "mmol/L"},
      {"measurement": "[LDL] Median CFB", "setting": "100 mg q.d., week 1", "result": 0.07, "unit": "mmol/L"},
      {"measurement": "[LDL] Mean CFB", "setting": "100 mg q.d., week 2", "result": 0.10, "unit": "mmol/L"},
      {"measurement": "[LDL] Median CFB", "setting": "100 mg q.d., week 2", "result": -0.05, "unit": "mmol/L"},
      {"measurement": "[LDL] Mean CFB", "setting": "100 mg q.d., week 4", "result": 0.19, "unit": "mmol/L"},
      {"measurement": "[LDL] Median CFB", "setting": "100 mg q.d., week 4", "result": 0.14, "unit": "mmol/L"},
      {"measurement": "[LDL] Mean CFB", "setting": "100 mg q.d., week 8", "result": 0.16, "unit": "mmol/L"},
      {"measurement": "[LDL] Median CFB", "setting": "100 mg q.d., week 8", "result": 0.14, "unit": "mmol/L"},
      {"measurement": "[LDL] Mean CFB", "setting": "100 mg q.d., week 12", "result": 0.28, "unit": "mmol/L"},
      {"measurement": "[LDL] Median CFB", "setting": "100 mg q.d., week 12", "result": 0.18, "unit": "mmol/L"},
      {"measurement": "[LDL] Mean CFB", "setting": "100 mg q.d., week 16", "result": 0.28, "unit": "mmol/L"},
      {"measurement": "[LDL] Median CFB", "setting": "100 mg q.d., week 16", "result": 0.20, "unit": "mmol/L"},
      {"measurement": "[LDL] Mean CFB", "setting": "100 mg q.d., week 20", "result": 0.25, "unit": "mmol/L"},
      {"measurement": "[LDL] Median CFB", "setting": "100 mg q.d., week 20", "result": 0.23, "unit": "mmol/L"},
      {"measurement": "[LDL] Mean CFB", "setting": "100 mg q.d., week 24", "result": 0.31, "unit": "mmol/L"},
      {"measurement": "[LDL] Median CFB", "setting": "100 mg q.d., week 24", "result": 0.31, "unit": "mmol/L"},
      {"measurement": "[LDL] Mean CFB", "setting": "200 mg q.d., week 1", "result": 0.21, "unit": "mmol/L"},
      {"measurement": "[LDL] Median CFB", "setting": "200 mg q.d., week 1", "result": 0.18, "unit": "mmol/L"},
      {"measurement": "[LDL] Mean CFB", "setting": "200 mg q.d., week 2", "result": 0.19, "unit": "mmol/L"},
      {"measurement": "[LDL] Median CFB", "setting": "200 mg q.d., week 2", "result": 0.13, "unit": "mmol/L"},
      {"measurement": "[LDL] Mean CFB", "setting": "200 mg q.d., week 4", "result": 0.22, "unit": "mmol/L"},
      {"measurement": "[LDL] Median CFB", "setting": "200 mg q.d., week 4", "result": 0.29, "unit": "mmol/L"},
      {"measurement": "[LDL] Mean CFB", "setting": "200 mg q.d., week 8", "result": 0.21, "unit": "mmol/L"},
      {"measurement": "[LDL] Median CFB", "setting": "200 mg q.d., week 8", "result": 0.23, "unit": "mmol/L"},
      {"measurement": "[LDL] Mean CFB", "setting": "200 mg q.d., week 12", "result": 0.35, "unit": "mmol/L"},
      {"measurement": "[LDL] Median CFB", "setting": "200 mg q.d., week 12", "result": 0.32, "unit": "mmol/L"},
      {"measurement": "[LDL] Mean CFB", "setting": "200 mg q.d., week 16", "result": 0.30, "unit": "mmol/L"},
      {"measurement": "[LDL] Median CFB", "setting": "200 mg q.d., week 16", "result": 0.23, "unit": "mmol/L"},
      {"measurement": "[LDL] Mean CFB", "setting": "200 mg q.d., week 20", "result": 0.29, "unit": "mmol/L"},
      {"measurement": "[LDL] Median CFB", "setting": "200 mg q.d., week 20", "result": 0.25, "unit": "mmol/L"},
      {"measurement": "[LDL] Mean CFB", "setting": "200 mg q.d., week 24", "result": 0.38, "unit": "mmol/L"},
      {"measurement": "[LDL] Median CFB", "setting": "200 mg q.d., week 24", "result": 0.34, "unit": "mmol/L"},
      {"measurement": "[LDL] Mean CFB", "setting": "[1]", "result": 0.07, "unit": "mmol/L"},
      {"measurement": "[LDL] Median CFB", "setting": "[1]", "result": -0.05, "unit": "mmol/L"},
      {"measurement": "[LDL] Mean CFB", "setting": "[2]", "result": 0.16, "unit": "mmol/L"},
      {"measurement": "[LDL] Median CFB", "setting": "[2]", "result": 0.03, "unit": "mmol/L"},
      {"measurement": "[LDL] Mean CFB", "setting": "[3]", "result": 0.10, "unit": "mmol/L"},
      {"measurement": "[LDL] Median CFB", "setting": "[3]", "result": 0.12, "unit": "mmol/L"},
      {"measurement": "[LDL] Mean percentage CFB - 24 weeks results", "setting": "[1]", "result": 2.82, "unit": "%"},
      {"measurement": "[LDL] Mean percentage CFB - 24 weeks results", "setting": "[2]", "result": 5.77, "unit": "%"},
      {"measurement": "[LDL] Median percentage CFB - 24 weeks results", "setting": "[2]", "result": 1.00, "unit": "%"},
      {"measurement": "[LDL] Mean percentage CFB - 24 weeks results", "setting": "[3]", "result": 4.50, "unit": "%"},
      {"measurement": "[LDL] Median percentage CFB - 24 weeks results", "setting": "[3]", "result": 4.13, "unit": "%"}
    ]}
  ]
}
